Key:
[1] = tested on: normal human skin fibroblasts; test: Collagen production recovery test on damaged fibroblasts; type: cell-based; settings: hypoxanthine/xanthine oxidase damage; samples at final concentration 3.3%, 24 hours at 37° C.; FIG. 1
Method: A collagen production recovery test was conducted on damaged fibroblasts. Six to eight subcultures of normal human skin fibroblasts (Physicochemical Research Institute, Cell Development Bank BIRGB) were used in the test. […] Measurement of collagen production ability of a confluent in the steady state was performed according to the method of Webster, et al. based on the uptake of ^3H-proline into the produced collagen. […] Since proline is a main component of the amino acids that compose collagen, fibroblasts are cultured in a medium containing ^3H-proline, and the ^3H activity taken up into collagen in the cells is measured. Units are in d.p.m., and represent the number of […] of radioactivity released per minute.

atopic skin = test: 2-hour moisture retention duration test on atopic skin; type: in vivo, human; settings: FIGS. 21 through 31
Method: A 2-hour moisture retention duration test was performed on atopic skin.
Panelists: 7 persons with atopic skin
Test Method: Same as Test Example 2
Measurement Method: Same as Text Example 2
Test Apparatus: Same as Test Example 2

Compound	collagen production ability of fibroblasts damaged by active oxygen (3H-proline uptake into collagen) [1]	moisture retention duration (30 to 120 minutes after application) (atopic skin)
N=C(N)NCCC[C@H](N)C(=O)O [L-arginine]	significantly improved	continuation of moisture retention was observed
NCCO [ethanolamine]	significantly improved	continuation of moisture retention was observed

From patent US20110213033A1, “SKIN CONDITIONER” (Kabushiki Kaisha Soken, priority 1998, published 2011)
